Tests used:
thiol peroxidase HpTpx [1] = target: T1, thiol peroxidase HpTpx (Helicobacter pylori, UniProt O25151); experiment: Gel-based in situ competitive labelling against Metro-P3 (ABPP); assay type: cell-based; parameters: gene tpx; endogenous, H. pylori 26695 live cells
T1 sequence (O25151 2-166): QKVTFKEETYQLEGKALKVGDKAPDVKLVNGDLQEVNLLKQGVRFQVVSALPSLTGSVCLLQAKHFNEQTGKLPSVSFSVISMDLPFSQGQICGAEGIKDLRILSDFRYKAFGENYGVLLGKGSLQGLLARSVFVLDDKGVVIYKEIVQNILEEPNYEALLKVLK

[2] = target: T2, 60 kDa chaperonin HpGroEL (Helicobacter pylori, UniProt P42383); experiment: as above; assay type: cell-based; parameters: gene groEL; endogenous, H. pylori 26695 live cells
thiol peroxidase HpTpx [3] = target: T1, thiol peroxidase HpTpx; experiment: Intact protein MS and peroxidase assay of modified enzyme; EC50 is from in situ competition with Metro-P3 in H. pylori; assay type: cell-based; parameters: gene tpx; recombinant HpTpx wild type, modified during anaerobic expression in E. coli
[4] = target: T2, 60 kDa chaperonin HpGroEL; experiment: Intact protein MS and malachite green ATPase assay of modified enzyme; EC50 is from in situ competition with Metro-P3 in H. pylori; assay type: cell-based; parameters: gene groEL; recombinant HpGroEL, modified during anaerobic expression in E. coli
thiol peroxidase HpTpx [5] = target: T3, thiol peroxidase HpTpx (Helicobacter pylori, UniProt O25151, C94A); experiment: X-ray co-crystal structure, […] Å (reduced amine form Metro*); assay type: binding
T3 construct: gene tpx

thiol peroxidase HpTpx [6] = target: T1, thiol peroxidase HpTpx; experiment: In situ ABPP labelling ([…]), gel and LC-MS/MS, competed by Metro; assay type: cell-based; parameters: gene tpx; endogenous, H. pylori 26695 live cells
[7] = target: T2, 60 kDa chaperonin HpGroEL; experiment: as above; assay type: cell-based; parameters: gene groEL; endogenous, H. pylori 26695 live cells

T2 sequence (P42383 whole entry): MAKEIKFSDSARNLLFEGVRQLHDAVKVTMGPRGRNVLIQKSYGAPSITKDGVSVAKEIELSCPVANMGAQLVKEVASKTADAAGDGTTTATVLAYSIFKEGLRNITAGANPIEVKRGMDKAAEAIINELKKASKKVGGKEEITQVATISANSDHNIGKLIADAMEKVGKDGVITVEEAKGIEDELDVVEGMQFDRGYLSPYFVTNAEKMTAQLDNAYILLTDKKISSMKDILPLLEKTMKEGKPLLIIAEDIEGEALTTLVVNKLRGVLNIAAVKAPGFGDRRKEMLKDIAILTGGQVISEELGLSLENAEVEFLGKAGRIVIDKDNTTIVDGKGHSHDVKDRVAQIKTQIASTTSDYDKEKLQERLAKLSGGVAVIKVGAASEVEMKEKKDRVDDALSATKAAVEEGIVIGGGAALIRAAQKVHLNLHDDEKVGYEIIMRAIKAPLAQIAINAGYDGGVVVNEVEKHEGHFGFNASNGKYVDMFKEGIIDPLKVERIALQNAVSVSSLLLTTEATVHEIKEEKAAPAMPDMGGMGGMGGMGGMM

CCOCCn1c([N+](=O)[O-])cnc1C [MF-03]
EC50 (thiol peroxidase HpTpx [1]): 17 µM
EC50 [2]: 40 µM

Cc1ncc([N+](=O)[O-])n1CCO [Metro, Metronidazole]
EC50 (thiol peroxidase HpTpx [3]): 250 µM
EC50 [4]: 24 µM
X-ray co-crystal structure, 1.75 Å (reduced amine form Metro*) (thiol peroxidase HpTpx [5]): forms an irreversible thioether bond with the CP residue

C#CCOCCn1c([N+](=O)[O-])cnc1C [Metro-P1]
In situ ABPP labelling (1 μM), gel and LC-MS/MS, competed by Metro (thiol peroxidase HpTpx [6]): 18-kDa HpTpx band was solely diminished in case of ether derivatives Metro-P1 and Metro-P3 upon Metro pre-incubation
In situ ABPP labelling (1 μM), gel and LC-MS/MS, competed by Metro [7]: a 60-kDa band decreased for all three probes
